Test results taken from patent publication US5143911A, “Antibiotic C-3 di-hydroxyphenyl substituted cephalosporin compounds, compositions and method of use thereof” (Bristol-Myers Squibb Company, priority 1990, dated 1992).
≈ marks a conversion by molar mass, not a printed value.

Experiments:
[1] = system: S. aureus IPM-24 (MRSA); settings: Staphylococcus aureus, 18 h, pH 7.2
[2] = system: C. terrigena IFO 12685; settings: 18 h, pH 7.2
[3] = system: S. aureus 4-1015 (MRSA); settings: Staphylococcus aureus, 18 h, pH 7.2
[4] = system: CETresistant E. coli(3), and Kl. pneumoniae(2); test: MIC, two-fold serial agar dilution, Mueller-Hinton agar (geometric mean, group Gn-Ib); type: cell-based; settings: Escherichia coli, read-out: Geometric Mean of MIC, Gn-Ib
Method: (§1) For a primary evaluation of some representative compounds of this invention, minimum inhibitory concentrations (MIC's) were determined against 32 strains of test organisms by two-fold serial agar dilution method in Mueller-Hinton agar.
GnIb: CETresistant E. coli(3), and Kl. pneumoniae(2)

[5] = system: P. mirabilis IFO-2849; settings: Proteus mirabilis, IFO2849, 18 h, pH 7.2
[6] = system: B. fragilis A 22053; test: In vitro activity against anaerobes (MIC), two-fold serial agar dilution, GAM agar; type: cell-based; settings: Bacteroides fragilis, A22053, Gn, Beta-Lactamase(-)
[7] = system: P. vulgaris IPM-13; type: cell-based; settings: Proteus vulgaris, IPM13, pH 7.2, 32° C. 18 hr, 10^6 cells/ml
[8] = system: E. coli Juhl; settings: Escherichia coli, in Mus musculus, im, read-out: PD50
[9] = system: M. morganii(1), Ent. cloacae(2), and Ser. marcescens(2); test: MIC, two-fold serial agar dilution, Mueller-Hinton agar (geometric mean, group Gn-II); type: cell-based; settings: 5 strains
Method: as §1
GnII: M. morganii(1), Ent. cloacae(2), and Ser. marcescens(2)

[10] = system: P. acnes A 21933; test: In vitro activity against anaerobes (MIC); type: cell-based; settings: Cutibacterium acnes, A21933, Gp
[11] = system: B. fragilis A 22695; test: In vitro activity against anaerobes (MIC), two-fold serial agar dilution, GAM agar; type: cell-based; settings: Bacteroides fragilis, A22695, Gn, Beta-Lactamase(+)
[12] = system: Penicillin (PC)sensitive S. (5 strains); test: MIC, two-fold serial agar dilution, Mueller-Hinton agar (geometric mean, group Gp-Ia); type: cell-based, S. aureus; settings: Staphylococcus aureus
Method: as §1
Gp-Ia: Penicillin (PC)sensitive S.

[13] = system: E. coli 255; settings: Escherichia coli, 255, 18 h, pH 7.2
[14] = system: P. cepacia No. 651; settings: Burkholderia cepacia, NO.651, 18 h, pH 7.2
[15] = system: S. marcescens IPM-16; settings: Serratia marcescens, IPM16, 18 h, pH 7.2
[16] = system: M. morgani 1510; settings: 18 h, pH 7.2
[17] = system: E. coli Juhl; test: MIC against the infecting organism (Table 2); settings: Escherichia coli
[18] = system: PCresistant S. aureus; test: MIC, two-fold serial agar dilution, Mueller-Hinton agar (geometric mean, group Gp-Ib); type: cell-based; settings: Staphylococcus aureus, penicillin-resistant S. aureus, 5 strains
Method: as §1
GpIb: PCresistant S. aureus

[19] = system: B. fragilis A 22533; test: In vitro activity against anaerobes (MIC), two-fold serial agar dilution, GAM agar; type: cell-based; settings: Bacteroides fragilis, A22533, Gn, Beta-Lactamase(+)
[20] = system: K. pneumoniae PCI 602; settings: Klebsiella pneumoniae, PCI602, 18 h, pH 7.2
[21] = system: S. aureus Smith; settings: Staphylococcus aureus, in Mus musculus, im, read-out: PD50

CO/N=C(\C(=O)NC1C(=O)N2C(C(=O)O)=C(/C=C/COC(=O)c3ccc(O)c(O)c3)CS[C@H]12)c1csc(N)n1 (stereo partly drawn) [Ia, 7-[(Z)-2-(2-Aminothiazol-4-yl)-2-methoxyiminoacetamido]-3-[(E)-3-(3,4-dihydroxybenzoyloxy)-1-propen-1-yl]-3-cephem-4-carboxylic acid]
MIC [1]: > 100 µg/mL | MIC [2]: 0.8 µg/mL (≈ 1.39 µM) | MIC [3]: 12.5 µg/mL (≈ 21.7 µM) | MIC [4]: 0.029 µg/mL (≈ 0.0504 µM) | MIC [5]: 0.05 µg/mL (≈ 0.0869 µM) | MIC [6]: 0.8 µg/mL (≈ 1.39 µM) | MIC [7]: > 100 µg/mL | ED50 [8]: 0.05 mg/kg | MIC [9]: 0.46 µg/mL (≈ 0.799 µM) | MIC [10]: 0.4 µg/mL (≈ 0.695 µM) | MIC [11]: 12.5 µg/mL (≈ 21.7 µM) | MIC [12]: 1.2 µg/mL (≈ 2.08 µM) | MIC [13]: 0.2 µg/mL (≈ 0.347 µM) | MIC [14]: 12.5 µg/mL (≈ 21.7 µM) | MIC [15]: > 100 µg/mL | MIC [16]: 3.1 µg/mL (≈ 5.39 µM) | MIC [17]: 0.1 µg/mL (≈ 0.174 µM) | MIC [18]: 1.6 µg/mL (≈ 2.78 µM) | MIC [19]: > 50 µg/mL | MIC [20]: < 0.0063 µg/mL | ED50 [21]: 0.4 mg/kg
